Test results taken from PubChem BioAssay AID1963447 (Molecular Pharmacology Branch, DTP, NCI, 2024).

System: 885512-296-R-J2-PDC complex spheroid growth, % test/control
Assay: Anticancer human tumor 885512-296-R-J2-PDC patient-derived breast carcinoma cell line growth inhibition [Asc]
Details: for IC50: curve of first compound; for viability, T/C: stronger effect = lower value; active = viability on the fitted dose curve at most 10% of control; inactive = the rest
Protocol: Multicellular complex tumor spheroid response to apoptosis pathway targeting inhibitors Alrizomadlin, Pelcitoclax, and Dasminapant in combination with a variety of drugs and investigational agents in selected tumor cell lines
The MDM2 inhibitor alrizomadlin, the Bcl-2/Bcl-xL inhibitor pelcitoclax, and the IAPs inhibitor dasminapant were evaluated both individually and in combination with standard of care and investigational anticancer small molecules within a complex spheroid model of solid tumors. . Complex spheroids include a stromal component modeled by human endothelial cells (HUVEC) and fibroblasts modeled by human mesenchymal stem cells (MSCs). The concentration ranges selected for each drug and investigational agent were based upon clinically achievable concentrations if the clinical Cmax of the agent was known.
Compounds. The drugs and investigational agents: alrizomadlin (APG-115; NSC831270), pelcitoclax (APG-1252; NSC835773), dasminapant (APG-1387;NSC834197), TAK-243 (NSC785004), copanlisib (NSC809693), olaparib (NSC753686), talazoparib (NSC767125), cobimetinib (NSC 768068), eltanexor (KPT-8602, NSC 794443), abemaciclib (NSC 768073), sotorasib (NSC818433), adagrasib (NSC 831453), MRTX-1133 (NSC 836407), Iadademestat (ORY1001, NSC 806812), and RMC-4630 (NSC839698), were obtained from the NCI Developmental Therapeutics Program Chemical Repository. The FDA-approved anticancer drug set is available from the Developmental Therapeutics Program at https://dtp.cancer.gov/organization/dscb/obtaining/available plates.htm. […] The stock solutions were prepared in dimethyl sulfoxide (DMSO, Sigma-Aldrich, St. Louis, MO, cat. D2650) at 800-fold the tested concentration and stored at -70 degrees C prior to their use. All drugs and investigational agents were tested over a range starting from a high concentration at or near the clinical Cmax and decreasing in half-log increments. If the clinical Cmax for an agent had not been determined, the highest concentration tested was 10 microM.
The patient-derived cancer (PDC) cell lines include five colon adenocarcinomas: 186277-243-T-J2-PDC, 616215-338-R-J1-PDC, 439559-082-T-J2-PDC, 463943-066-T-J2-PDC, and 519858-162-T-J1-PDC; three pancreatic carcinomas: 323965-272-R-J2-PDC, 521955-158-R6-J3-PDC, and 521955-158-R2-J5-PDC; two uterine sarcomas: 327498-152-R-J2-PDC and 993429-296-R-J1-PDC; two rhabdomyosarcomas: 755483-174-R-J1-PDC and 772245-204-R-J1-PDC; two soft tissue sarcomas: 126254-015-R-J1-PDC and 494315-158-R-J1-PDC; two malignant fibrous histiocytomas: 317291-083-R-J1-PDC and 596521-263-R-J1-PDC; two breast carcinomas: 171881-019-R-J1-PDC and 885512-296-R-J2-PDC; and one ovarian carcinoma: 6556581-035-R-J-PDC were obtained from the NCI PDMR, (https://pdmr.cancer.gov). The established cell lines HSSY-2 synovial sarcoma (RRID:CVCL 8719), SYO-1 synovial sarcoma (RRID:CVCL_7146), MPNST malignant peripheral neural sheath tumor were obtained from the Sloan Kettering Institute. The following established cell lines were purchased from the American Type Culture Collection (ATCC, Manassas, VA), Sor the received from the NCI repository:, PANC-1 pancreatic carcinoma (CRL-1469, RRID:CVCL_0480), OVCAR-5 ovarian carcinoma (RRID:CVCL_1628), OVCAR-8 ovarian carcinoma (RRID:CVCL_1629), , MCF-7 breast carcinoma (CRL-12584, RRID:CVCL_0031), MDA-MB-231 breast carcinoma (CRL-12532, RRID:CVCL_0062), NCI-H1876 small cell lung carcinoma (CRL-5902, RRID:CVCL_1503), NCI-H510A small cell lung carcinoma (HTB-184, RRID:CVCL_1565), NCI-H1417 (CRL-5869, RRID:CVCL_1469), and NCI-H196 small cell lung carcinoma (CRL-5823, RRID:CVCL_1509). Dr. Peter Houghton (Greehey Children's Cancer Research Institute, University of Texas Health Science Center, San Antonio, TX) provided Rh-18 rhabdomyosarcoma (RRID:CVCL_1659). Pooled donor human umbilical vein endothelial cells (HUVEC, Lonza, cat. CC-2519) and human mesenchymal stem cells (hMSC, Lonza, cat. PT-2501) were purchased from Lonza (Walkersville, MD).
Cell Culture. […]

[1] = second compound 0.03 µM, first compound 0.00316 µM
[2] = second compound 0.03 µM, first compound 0.01 µM
[3] = second compound 0.03 µM, first compound 0.0316 µM
[4] = second compound 0.03 µM, first compound 0.1 µM
[5] = second compound 0.0949 µM, first compound 0.00316 µM
[6] = second compound 0.0949 µM, first compound 0.01 µM
[7] = second compound 0.0949 µM, first compound 0.0316 µM
[8] = second compound 0.0949 µM, first compound 0.1 µM
[9] = second compound 0.3 µM, first compound 0.00316 µM
[10] = second compound 0.3 µM, first compound 0.01 µM
[11] = second compound 0.3 µM, first compound 0.0316 µM
[12] = second compound 0.3 µM, first compound 0.1 µM
[13] = second compound 0.949 µM, first compound 0.00316 µM
[14] = second compound 0.949 µM, first compound 0.01 µM
[15] = second compound 0.949 µM, first compound 0.0316 µM
[16] = second compound 0.949 µM, first compound 0.1 µM
[17] = second compound 3 µM, first compound 0.00316 µM
[18] = second compound 3 µM, first compound 0.01 µM
[19] = second compound 3 µM, first compound 0.0316 µM
[20] = second compound 3 µM, first compound 0.1 µM
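Note: spheroids exposed to compounds for seven days.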
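Throughout, for viability, T/C: 100% = DMSO vehicle control wells.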

CCN1CCN(Cc2ccc(Nc3ncc(F)c(-c4cc(F)c5nc(C)n(C(C)C)c5c4)n3)nc2)CC1 + CCN1C(C(=O)NC23CCC(C(=O)O)(CC2)CC3)C(c2cccc(Cl)c2F)C2(C(=O)Nc3cc(Cl)ccc32)C12CCCCC2
> 1000 nM: IC50 (second compound 0.03 µM) | IC50 (second compound 0.0949 µM) | IC50 (second compound 0.3 µM) | IC50 (second compound 0.949 µM)
< 3.16 nM: IC50 (second compound 3 µM)
inactive: viability, T/C [1] 98.5% | viability, T/C [2] 101% | viability, T/C [3] 81.3% | viability, T/C [4] 76.4% | viability, T/C (second compound 0.03 µM, first compound 0.316 µM) 79.1% | viability, T/C (second compound 0.03 µM, first compound 1 µM) 62% | viability, T/C [5] 96.1% | viability, T/C [6] 91.8% | viability, T/C [7] 80.5% | viability, T/C [8] 64.1% | viability, T/C (second compound 0.0949 µM, first compound 0.316 µM) 80.8% | viability, T/C (second compound 0.0949 µM, first compound 1 µM) 59.9% | viability, T/C [9] 74.2% | viability, T/C [10] 90.3% | viability, T/C [11] 75.2% | viability, T/C [12] 69% | viability, T/C (second compound 0.3 µM, first compound 0.316 µM) 66% | viability, T/C (second compound 0.3 µM, first compound 1 µM) 56.3% | viability, T/C [13] 69.7% | viability, T/C [14] 58.7% | viability, T/C [15] 60.3% | viability, T/C [16] 50.5% | viability, T/C (second compound 0.949 µM, first compound 0.316 µM) 50.4% | viability, T/C (second compound 0.949 µM, first compound 1 µM) 54.9% | viability, T/C [17] 41.1% | viability, T/C [18] 35.3% | viability, T/C [19] 40.8% | viability, T/C [20] 38.7% | viability, T/C (second compound 3 µM, first compound 0.316 µM) 37.3% | viability, T/C (second compound 3 µM, first compound 1 µM) 39.4%

NC(=O)C(=Cn1cnc(-c2cc(C(F)(F)F)cc(C(F)(F)F)c2)n1)c1cncnc1 + CCN1C(C(=O)NC23CCC(C(=O)O)(CC2)CC3)C(c2cccc(Cl)c2F)C2(C(=O)Nc3cc(Cl)ccc32)C12CCCCC2
42.9 nM: IC50 (second compound 0.3 µM)
44 nM: IC50 (second compound 0.0949 µM)
45.1 nM: IC50 (second compound 0.03 µM)
inactive: viability, T/C (second compound 0.03 µM, first compound 0.000949 µM) 108% | viability, T/C (second compound 0.03 µM, first compound 0.003 µM) 95.1% | viability, T/C (second compound 0.03 µM, first compound 0.00949 µM) 111% | viability, T/C (second compound 0.03 µM, first compound 0.03 µM) 72.4% | viability, T/C (second compound 0.0949 µM, first compound 0.000949 µM) 98.6% | viability, T/C (second compound 0.0949 µM, first compound 0.003 µM) 93.7% | viability, T/C (second compound 0.0949 µM, first compound 0.00949 µM) 113% | viability, T/C (second compound 0.0949 µM, first compound 0.03 µM) 72.2% | viability, T/C (second compound 0.3 µM, first compound 0.000949 µM) 74.4% | viability, T/C (second compound 0.3 µM, first compound 0.003 µM) 91% | viability, T/C (second compound 0.3 µM, first compound 0.00949 µM) 92.2% | viability, T/C (second compound 0.3 µM, first compound 0.03 µM) 69.3% | viability, T/C (second compound 0.949 µM, first compound 0.000949 µM) 70.3% | viability, T/C (second compound 0.949 µM, first compound 0.003 µM) 72.2% | viability, T/C (second compound 0.949 µM, first compound 0.00949 µM) 80.9% | viability, T/C (second compound 0.949 µM, first compound 0.03 µM) 63.4% | viability, T/C (second compound 3 µM, first compound 0.000949 µM) 42.7% | viability, T/C (second compound 3 µM, first compound 0.003 µM) 48.9% | viability, T/C (second compound 3 µM, first compound 0.00949 µM) 48.3% | viability, T/C (second compound 3 µM, first compound 0.03 µM) 55%
active: viability, T/C (second compound 0.03 µM, first compound 0.0949 µM) 9.51% | viability, T/C (second compound 0.03 µM, first compound 0.3 µM) 1.11% | viability, T/C (second compound 0.0949 µM, first compound 0.0949 µM) 6.79% | viability, T/C (second compound 0.0949 µM, first compound 0.3 µM) 0.89% | viability, T/C (second compound 0.3 µM, first compound 0.0949 µM) 6.76% | viability, T/C (second compound 0.3 µM, first compound 0.3 µM) 0.83% | viability, T/C (second compound 0.949 µM, first compound 0.0949 µM) 6.15% | viability, T/C (second compound 0.949 µM, first compound 0.3 µM) 1.27% | viability, T/C (second compound 3 µM, first compound 0.0949 µM) 4.94% | viability, T/C (second compound 3 µM, first compound 0.3 µM) 0.76%
39.4 nM: IC50 (second compound 0.949 µM)
0.949 nM: IC50 (second compound 3 µM)

NC1CCC(NC2CC2c2ccccc2)CC1 (stereo not given) + CCN1C(C(=O)NC23CCC(C(=O)O)(CC2)CC3)C(c2cccc(Cl)c2F)C2(C(=O)Nc3cc(Cl)ccc32)C12CCCCC2
> 100 nM: IC50 (second compound 0.03 µM) | IC50 (second compound 0.0949 µM) | IC50 (second compound 0.3 µM) | IC50 (second compound 0.949 µM) | IC50 (second compound 3 µM)
inactive: viability, T/C (second compound 0.03 µM, first compound 0.000316 µM) 116% | viability, T/C (second compound 0.03 µM, first compound 0.001 µM) 129% | viability, T/C [1] 120% | viability, T/C [2] 123% | viability, T/C [3] 125% | viability, T/C [4] 118% | viability, T/C (second compound 0.0949 µM, first compound 0.000316 µM) 117% | viability, T/C (second compound 0.0949 µM, first compound 0.001 µM) 123% | viability, T/C [5] 127% | viability, T/C [6] 114% | viability, T/C [7] 124% | viability, T/C [8] 119% | viability, T/C (second compound 0.3 µM, first compound 0.000316 µM) 108% | viability, T/C (second compound 0.3 µM, first compound 0.001 µM) 116% | viability, T/C [9] 118% | viability, T/C [10] 108% | viability, T/C [11] 118% | viability, T/C [12] 118% | viability, T/C (second compound 0.949 µM, first compound 0.000316 µM) 99.8% | viability, T/C (second compound 0.949 µM, first compound 0.001 µM) 102% | viability, T/C [13] 104% | viability, T/C [14] 99.7% | viability, T/C [15] 103% | viability, T/C [16] 104% | viability, T/C (second compound 3 µM, first compound 0.000316 µM) 66.5% | viability, T/C (second compound 3 µM, first compound 0.001 µM) 62.2% | viability, T/C [17] 62.2% | viability, T/C [18] 70.7% | viability, T/C [19] 71.4% | viability, T/C [20] 74.8%
